The target in this assay is hERG potassium channel (Homo sapiens, UniProt Q12809). Put plainly: fluorescence polarization, fluorescent tracer displacement. It counts as binding. (In general: Polarisation of emitted light reports the rotation of a fluorescent probe.)

As a reminder, the IC50 is the concentration that gives 50% inhibition.

Chain of hERG potassium channel (Q12809 whole entry): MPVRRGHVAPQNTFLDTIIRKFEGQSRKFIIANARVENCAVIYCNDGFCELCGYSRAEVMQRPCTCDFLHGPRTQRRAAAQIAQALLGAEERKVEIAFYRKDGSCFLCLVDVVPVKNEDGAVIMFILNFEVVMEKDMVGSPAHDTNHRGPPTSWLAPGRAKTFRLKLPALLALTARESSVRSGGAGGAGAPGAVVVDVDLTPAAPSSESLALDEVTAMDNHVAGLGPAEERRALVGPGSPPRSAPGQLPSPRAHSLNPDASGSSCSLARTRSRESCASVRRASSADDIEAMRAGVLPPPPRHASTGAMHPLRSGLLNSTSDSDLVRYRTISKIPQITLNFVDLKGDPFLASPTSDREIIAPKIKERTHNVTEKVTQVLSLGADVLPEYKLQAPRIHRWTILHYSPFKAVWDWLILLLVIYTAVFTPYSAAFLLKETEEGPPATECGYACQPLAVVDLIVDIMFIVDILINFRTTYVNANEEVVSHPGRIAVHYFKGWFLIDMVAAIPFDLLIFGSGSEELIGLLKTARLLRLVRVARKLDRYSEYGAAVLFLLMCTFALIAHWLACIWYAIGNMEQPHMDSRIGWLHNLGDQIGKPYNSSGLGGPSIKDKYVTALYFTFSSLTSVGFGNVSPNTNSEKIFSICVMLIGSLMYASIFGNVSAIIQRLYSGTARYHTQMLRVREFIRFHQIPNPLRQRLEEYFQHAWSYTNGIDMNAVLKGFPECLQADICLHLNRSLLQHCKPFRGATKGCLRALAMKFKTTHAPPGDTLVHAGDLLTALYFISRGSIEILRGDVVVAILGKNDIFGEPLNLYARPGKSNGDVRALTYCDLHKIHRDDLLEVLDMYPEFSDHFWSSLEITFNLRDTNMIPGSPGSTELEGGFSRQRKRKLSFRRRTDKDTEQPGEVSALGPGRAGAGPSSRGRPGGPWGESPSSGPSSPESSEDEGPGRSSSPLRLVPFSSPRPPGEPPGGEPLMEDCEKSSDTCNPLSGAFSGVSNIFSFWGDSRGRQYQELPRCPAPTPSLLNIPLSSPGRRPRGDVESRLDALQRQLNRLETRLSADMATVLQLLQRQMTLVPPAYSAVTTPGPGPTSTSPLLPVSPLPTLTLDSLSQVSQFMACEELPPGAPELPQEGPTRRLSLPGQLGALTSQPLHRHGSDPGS

`Cc1c(-c2ccc(O)cc2)n(Cc2ccc(OCCN3CCCCC3)cc2)c2ccc(O)cc12` [MDL-001] displayed an IC50 of 13 µM.
